Measured values: patent US11511095B2, “Portable transdermal administration patch apparatus and preparation method thereof” (CHANGZHOU HUALIAN HEALTH DRESSING LTD., priority 2017, dated 2022)

Assay: Simulation experiment of in vitro transdermal drug delivery in pig skin (Franz diffusion cell)
Type: in vitro ADME
Conditions: 37° C.
From the text: Simulation experiment of in vitro transdermal drug delivery in pig skin:
(1) pig skin with a thickness of 300-500 μm and an area of 1.0 cm^2 was selected and placed between the Franz diffusion cell supply cell and the Franz diffusion cell receiving cell. An […] side of the pig skin was oriented toward the supply cell, and then the patch apparatus was placed in the supply cell and was attached to the epidermis of the pig skin. The receiving cell was filled with phosphate buffered saline to simulate blood circulation, and the temperature in the receiving cell was maintained at 37° C. to simulate human body temperature.
(2) Set the electric quantity: 0.1 mA, the conduction time is 24 hours as desired. Press a power switch of the patch apparatus.

[1] = this method/apparatus, quantity of electric charge 2.4 mA * hour (0.1 mA, 24 hours)
[2] = traditional patch, quantity of electric charge 0 mA * hour, 24 hours

Cc1nccn1CC1CCc2c(c3ccccc3n2C)C1=O (stereo not shown) [ondansetron]
Administration dosage (μg/cm^2 skin area contacted by the drug formulation) [1]: 53.2 μg/cm^2 | Administration speed [1]: 1.8 μg/(cm^2 * h) | Administration dosage (μg/cm^2 skin area contacted by the drug formulation) [2]: 1.2 μg/cm^2 | Administration speed [2]: 0.1 μg/(cm^2 * h)
